Measurements: ChEMBL document CHEMBL3046898, “Synthesis and characterization of flurbiprofen hydrazide derivatives as potential anti-HCV, anticancer and antimicrobial agents” (2013)
Active and inactive are the calls of the source. The calls are words filed in the database; no cut-off is given here.

Legend:
Hepacivirus hominis = assay: Inhibition of HCV N-terminal His-tagged NS5B RNA dependent RNA polymerase expressed in Escherichia coli DH5alpha using poly rA/U12 as primer at 200 uM after 60 mins by liquid scintillation counting
Photorhabdus luminescens [1] = assay: Antibacterial activity against Photorhabdus luminescens at 10 mg/ml after 24 hrs by disc diffusion method; type: functional, organism-based
Staphylococcus aureus [2] = assay: Antibacterial activity against Staphylococcus aureus at 10 mg/ml after 24 hrs by disc diffusion method; type: functional
Klebsiella aerogenes [3] = assay: Antibacterial activity against Enterobacter aerogenes at 6.25 to 200 ug/ml after 24 hrs by microwell dilution method; type: functional, organism-based
Staphylococcus aureus [4] = assay: Antibacterial activity against Staphylococcus aureus at 6.25 to 200 ug/ml after 24 hrs by microwell dilution assay; type: functional, organism-based
Aspergillus = assay: Antifungal activity against Aspergillus at 10 mg/ml after 72 hrs by disc diffusion method; type: functional, organism-based
Kluyveromyces marxianus = assay: Antifungal activity against Kluyveromyces marxianus at 10 mg/ml after 48 hrs by disc diffusion method; type: functional, organism-based
Staphylococcus cohnii [5] = assay: Antibacterial activity against Staphylococcus cohnii at 6.25 to 200 ug/ml after 24 hrs by microwell dilution assay; type: functional, organism-based
Staphylococcus cohnii [6] = assay: Antibacterial activity against Staphylococcus cohnii at 10 mg/ml after 24 hrs by disc diffusion method; type: functional
Salmonella paratyphi [7] = assay: Antibacterial activity against Salmonella paratyphi at 6.25 to 200 ug/ml after 24 hrs by microwell dilution method; type: functional, organism-based; details: Salmonella enterica subsp. enterica serovar Paratyphi A
Photorhabdus luminescens [8] = assay: Antibacterial activity against Photorhabdus luminescens at 6.25 to 200 ug/ml after 24 hrs by microwell dilution method; type: functional, organism-based
Proteus vulgaris [9] = assay: Antibacterial activity against Proteus vulgaris at 10 mg/ml after 24 hrs by disc diffusion method; type: functional, organism-based
[10] = test system: Schwanniomyces occidentalis; assay: Antifungal activity against Schwanniomyces occidentalis at 10 mg/ml after 48 hrs by disc diffusion method; type: functional, organism-based
Pseudomonas aeruginosa [11] = assay: Antibacterial activity against Pseudomonas aeruginosa at 10 mg/ml after 24 hrs by disc diffusion method; type: functional, organism-based
[12] = test system: Acinetobacter radioresistens; assay: Antibacterial activity against Acinetobacter radioresistens at 6.25 to 200 ug/ml after 24 hrs by microwell dilution method; type: functional, organism-based
Micrococcus luteus [13] = assay: Antibacterial activity against Micrococcus luteus at 6.25 to 200 ug/ml after 24 hrs by microwell dilution method; type: functional, organism-based
Pseudomonas aeruginosa [14] = assay: Antibacterial activity against Pseudomonas aeruginosa at 6.25 to 200 ug/ml after 24 hrs by microwell dilution method; type: functional, organism-based
Nakaseomyces glabratus = assay: Antifungal activity against Candida glabrata at 10 mg/ml after 48 hrs by disc diffusion method; type: functional, organism-based
Candida parapsilosis = assay: Antifungal activity against Candida parapsilosis at 10 mg/ml after 48 hrs by disc diffusion method; type: functional, organism-based
Micrococcus lylae [15] = assay: Antibacterial activity against Micrococcus lylae at 6.25 to 200 ug/ml after 24 hrs by microwell dilution method; type: functional, organism-based
[16] = test system: Acinetobacter radioresistens; assay: Antibacterial activity against Acinetobacter radioresistens at 10 mg/ml after 24 hrs by disc diffusion method; type: functional, organism-based
Micrococcus luteus [17] = assay: Antibacterial activity against Micrococcus luteus at 10 mg/ml after 24 hrs by disc diffusion method; type: functional, organism-based
Salmonella paratyphi [18] = assay: Antibacterial activity against Salmonella paratyphi at 10 mg/ml after 24 hrs by disc diffusion method; type: functional, organism-based; details: Salmonella enterica subsp. enterica serovar Paratyphi A
Pichia membranifaciens = assay: Antifungal activity against Pichia membranifaciens at 10 mg/ml after 48 hrs by disc diffusion method; type: functional, organism-based
Proteus vulgaris [19] = assay: Antibacterial activity against Proteus vulgaris at 6.25 to 200 ug/ml after 24 hrs by microwell dilution method; type: functional, organism-based
Escherichia coli [20] = assay: Antibacterial activity against Escherichia coli at 6.25 to 200 ug/ml after 24 hrs by microwell dilution method; type: functional, organism-based
Escherichia coli [21] = assay: Antibacterial activity against Escherichia coli at 10 mg/ml after 24 hrs by disc diffusion method; type: functional, organism-based
Candida tropicalis = assay: Antifungal activity against Candida tropicalis at 10 mg/ml after 48 hrs by disc diffusion method; type: functional, organism-based
Candida albicans = assay: Antifungal activity against Candida albicans at 10 mg/ml after 48 hrs by disc diffusion method; type: functional, organism-based
Micrococcus lylae [22] = assay: Antibacterial activity against Micrococcus lylae at 10 mg/ml after 24 hrs by disc diffusion method; type: functional, organism-based
Klebsiella aerogenes [23] = assay: Antibacterial activity against Enterobacter aerogenes at 10 mg/ml after 24 hrs by disc diffusion method; type: functional, organism-based

SMILES | inhibition (Hepacivirus hominis) | Activity (Photorhabdus luminescens [1]) | Activity (Staphylococcus aureus [2]) | Activity (Klebsiella aerogenes [3]) | Activity (Staphylococcus aureus [4]) | Activity (Aspergillus) | Activity (Kluyveromyces marxianus) | Activity (Staphylococcus cohnii [5]) | Activity (Staphylococcus cohnii [6]) | Activity (Salmonella paratyphi [7]) | Activity (Photorhabdus luminescens [8]) | Activity (Proteus vulgaris [9]) | Activity [10] | Activity (Pseudomonas aeruginosa [11]) | Activity [12] | Activity (Micrococcus luteus [13]) | Activity (Pseudomonas aeruginosa [14]) | Activity (Nakaseomyces glabratus) | Activity (Candida parapsilosis) | Activity (Micrococcus lylae [15]) | further results
CC(C(=O)N/N=C/c1ccccc1Cl)c1ccc(-c2ccccc2)c(F)c1 (configuration not stated) | 8% | inactive | inactive | inactive | inactive | inactive | inactive | inactive | inactive | inactive | inactive | inactive | inactive | inactive | inactive | inactive | inactive | inactive | inactive | inactive | Activity [16]: inactive; Activity (Micrococcus luteus [17]): inactive; Activity (Salmonella paratyphi [18]): inactive; Activity (Pichia membranifaciens): inactive; Activity (Proteus vulgaris [19]): inactive; Activity (Escherichia coli [20]): inactive; Activity (Escherichia coli [21]): inactive; Activity (Candida tropicalis): inactive; Activity (Candida albicans): inactive; Activity (Micrococcus lylae [22]): inactive; Activity (Klebsiella aerogenes [23]): inactive
CCCNC(=S)NNC(=O)C(C)c1ccc(-c2ccccc2)c(F)c1 (configuration not stated) | 8% | inactive | inactive | inactive | inactive | inactive | inactive | inactive | inactive | inactive | inactive | inactive | inactive | inactive | inactive | inactive | inactive | inactive | inactive | inactive | Activity [16]: inactive; Activity (Micrococcus luteus [17]): inactive; Activity (Salmonella paratyphi [18]): inactive; Activity (Pichia membranifaciens): inactive; Activity (Proteus vulgaris [19]): inactive; Activity (Escherichia coli [20]): inactive; Activity (Escherichia coli [21]): inactive; Activity (Candida tropicalis): inactive; Activity (Candida albicans): inactive; Activity (Micrococcus lylae [22]): inactive; Activity (Klebsiella aerogenes [23]): inactive
CC(C(=O)N/N=C/c1ccc(C(F)(F)F)cc1)c1ccc(-c2ccccc2)c(F)c1 (configuration not stated) | 8% | inactive | inactive | inactive | inactive | inactive | inactive | inactive | inactive | inactive | inactive | inactive | inactive | inactive | inactive | inactive | inactive | inactive | inactive | inactive | Activity [16]: inactive; Activity (Micrococcus luteus [17]): inactive; Activity (Salmonella paratyphi [18]): inactive; Activity (Pichia membranifaciens): inactive; Activity (Proteus vulgaris [19]): inactive; Activity (Escherichia coli [20]): inactive; Activity (Escherichia coli [21]): inactive; Activity (Candida tropicalis): inactive; Activity (Candida albicans): inactive; Activity (Micrococcus lylae [22]): inactive; Activity (Klebsiella aerogenes [23]): inactive
CC(C(=O)NN1C(=O)CSC1c1ccccc1Cl)c1ccc(-c2ccccc2)c(F)c1 (configuration not stated) | 70% | inactive | inactive | inactive | inactive | inactive | inactive | inactive | inactive | inactive | inactive | inactive | inactive | inactive | inactive | inactive | inactive | inactive | inactive | inactive | Activity [16]: inactive; Activity (Micrococcus luteus [17]): inactive; Activity (Salmonella paratyphi [18]): inactive; Activity (Pichia membranifaciens): inactive; Activity (Proteus vulgaris [19]): inactive; Activity (Escherichia coli [20]): inactive; Activity (Escherichia coli [21]): inactive; Activity (Candida tropicalis): inactive; Activity (Candida albicans): inactive; Activity (Micrococcus lylae [22]): inactive; Activity (Klebsiella aerogenes [23]): inactive
CC(C(=O)N/N=C/c1cccc(F)c1)c1ccc(-c2ccccc2)c(F)c1 (configuration not stated) | 8% | inactive | inactive | inactive | inactive | inactive | inactive | inactive | inactive | inactive | inactive | inactive | inactive | inactive | inactive | inactive | inactive | inactive | inactive | inactive | Activity [16]: inactive; Activity (Micrococcus luteus [17]): inactive; Activity (Salmonella paratyphi [18]): inactive; Activity (Pichia membranifaciens): inactive; Activity (Proteus vulgaris [19]): inactive; Activity (Escherichia coli [20]): inactive; Activity (Escherichia coli [21]): inactive; Activity (Candida tropicalis): inactive; Activity (Candida albicans): inactive; Activity (Micrococcus lylae [22]): inactive; Activity (Klebsiella aerogenes [23]): inactive
CC(C(=O)NNC(=S)NC1CCCCC1)c1ccc(-c2ccccc2)c(F)c1 (configuration not stated) | 8% | inactive | inactive | inactive | inactive | inactive | inactive | inactive | inactive | inactive | inactive | inactive | inactive | inactive | inactive | inactive | inactive | inactive | inactive | inactive | Activity [16]: inactive; Activity (Micrococcus luteus [17]): inactive; Activity (Salmonella paratyphi [18]): inactive; Activity (Pichia membranifaciens): inactive; Activity (Proteus vulgaris [19]): inactive; Activity (Escherichia coli [20]): inactive; Activity (Escherichia coli [21]): inactive; Activity (Candida tropicalis): inactive; Activity (Candida albicans): inactive; Activity (Micrococcus lylae [22]): inactive; Activity (Klebsiella aerogenes [23]): inactive
CC(C(=O)N/N=C1\SCC(=O)N1C)c1ccc(-c2ccccc2)c(F)c1 (configuration not stated) | 8% | inactive | inactive | inactive | inactive | inactive | inactive | inactive | inactive | inactive | inactive | inactive | inactive | inactive | inactive | inactive | inactive | inactive | inactive | inactive | Activity [16]: inactive; Activity (Micrococcus luteus [17]): inactive; Activity (Salmonella paratyphi [18]): inactive; Activity (Pichia membranifaciens): inactive; Activity (Proteus vulgaris [19]): inactive; Activity (Escherichia coli [20]): inactive; Activity (Escherichia coli [21]): inactive; Activity (Candida tropicalis): inactive; Activity (Candida albicans): inactive; Activity (Micrococcus lylae [22]): inactive; Activity (Klebsiella aerogenes [23]): inactive
